According to EPA's ToxValDB 9.5 (doi:10.2903/j.efsa.2013.3270):

Assays:
[1] = test system: Oncorhynchus mykiss; details: acute; duration: 96 hours; mortality
[2] = test system: Daphnia magna; details: chronic/long-term; duration: 21 days; reproduction
[3] = test system: Colinus virginianus; details: acute, oral, mortality
[4] = test system: Anas platyrhynchos; details: chronic/long-term
[5] = test system: Folsomia candida; details: chronic/long-term; duration: 28 days
[6] = test system: Rattus norvegicus
[7] = test system: Pimephales promelas; details: chronic/long-term; duration: 35 days; other
[8] = test system: Apis mellifera; details: acute, duration: 48 hours, mortality
[9] = test system: Tagia sp.; details: acute; duration: 14 days; mortality
[10] = test system: Aphidius rhopalosiphi; experiment: LR50; higher = less toxic; details: not reported; mortality
[11] = test system: Typhlodromus pyri; experiment: LR50; higher = less toxic; details: not reported; mortality

What does the source list for `COC(=O)c1csc(C)c1S(=O)(=O)NC(=O)n1nc(OC)n(C)c1=O` [Thiencarbazone-methyl]?
LC50 [1]: > 104 µg/mL; NOEC [2]: 3.54 mg/L; LD50 ([3]; diet): > 699 mg/kg-day; LD50 [3]: > 2000 mg/kg-day; NOEL [4]: 24 mg/kg-day; NOEC [5]: 1000 mg/kg; LD50 ([6]; acute, oral, mortality): > 2000 mg/kg-day; NOEL ([6]; chronic): 946 mg/kg-day; NOAEL ([6]; chronic, duration: 2 years): 22.8 mg/kg-day; NOAEL ([6]; subchronic, duration: 90 days, oral): 24.7 mg/kg-day; NOEC [7]: 4.8 mg/L; LD50 ([8]; dermal): > 200 µg/piece; LD50 ([8]; oral, unspecified): > 199 µg/piece; LC50 [9]: > 1000 mg/kg; LR50 [10]: > 45 g/ha; LR50 [11]: > 0.45 g/ha
